According to PubChem BioAssay AID1963836 (Molecular Pharmacology Branch, DTP, NCI, 2024):

System: 857933-349-R-J2-PDC complex spheroid viability
Test: Anticancer human tumor 857933-349-R-J2-PDC patient-derived colon adenocarcinoma cell line growth inhibition [POLQ]
Details: for IC50: curve of first compound; for viability, T/C: stronger effect = lower value
Summary of the method: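 Growth inhibition in 3D: complex spheroids (tumor PDC, HUVEC, MSC) treated with POLQ inhibitor combinations; where Cmax unknown, highest tested concentration 10 microM, except SN-38 at 1 microM.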

[1] = second compound 0.0316 µM, first compound 0.0316 µM
[2] = second compound 0.0316 µM, first compound 0.1 µM
[3] = second compound 0.0316 µM, first compound 0.316 µM
[4] = second compound 0.0316 µM, first compound 1 µM
[5] = second compound 0.0316 µM, first compound 3.16 µM
[6] = second compound 0.0316 µM, first compound 10 µM
[7] = second compound 0.1 µM, first compound 0.0316 µM
[8] = second compound 0.1 µM, first compound 0.1 µM
[9] = second compound 0.1 µM, first compound 0.316 µM
[10] = second compound 0.1 µM, first compound 1 µM
[11] = second compound 0.1 µM, first compound 3.16 µM
[12] = second compound 0.1 µM, first compound 10 µM
[13] = second compound 0.316 µM, first compound 0.0316 µM
[14] = second compound 0.316 µM, first compound 0.1 µM
[15] = second compound 0.316 µM, first compound 0.316 µM
[16] = second compound 0.316 µM, first compound 1 µM
[17] = second compound 0.316 µM, first compound 3.16 µM
[18] = second compound 0.316 µM, first compound 10 µM
[19] = second compound 1 µM, first compound 0.0316 µM
[20] = second compound 1 µM, first compound 0.1 µM
[21] = second compound 1 µM, first compound 0.316 µM
[22] = second compound 1 µM, first compound 1 µM
[23] = second compound 1 µM, first compound 3.16 µM
[24] = second compound 1 µM, first compound 10 µM
[25] = second compound 3.16 µM, first compound 0.0316 µM
[26] = second compound 3.16 µM, first compound 0.1 µM
[27] = second compound 3.16 µM, first compound 0.316 µM
[28] = second compound 3.16 µM, first compound 1 µM
[29] = second compound 3.16 µM, first compound 3.16 µM
[30] = second compound 3.16 µM, first compound 10 µM
[31] = second compound 10 µM, first compound 0.0316 µM
[32] = second compound 10 µM, first compound 0.1 µM
[33] = second compound 10 µM, first compound 0.316 µM
[34] = second compound 10 µM, first compound 1 µM
[35] = second compound 10 µM, first compound 3.16 µM
[36] = second compound 10 µM, first compound 10 µM
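Also: spheroids exposed to compounds for seven days before readout.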

`CCc1cc2c(N3CCc4c(cc(Cn5ccnc5)cc4-c4cn(C)nc4C(F)(F)F)C3=O)ccnc2c(OC)n1` + Cc1cccc(N(C)C(=O)C2C(O)CCN2c2nc(C)cc(C(F)(F)F)c2C#N)c1 was tested, and the IC50 (second compound 0.0316 µM) was over 10 µM, the IC50 (second compound 0.1 µM) was over 10 µM and the IC50 (second compound 0.316 µM) was over 10 µM. The IC50 (second compound 1 µM) was over 10 µM, the IC50 (second compound 3.16 µM) was over 10 µM and the IC50 (second compound 10 µM) was over 10 µM. It also gave a viability, T/C [1] of 104%, a viability, T/C [2] of 91% and a viability, T/C [3] of 94.5%. The viability, T/C [4] was 82%, the viability, T/C [5] was 77.7% and the viability, T/C [6] was 63.1%. The viability, T/C [7] was 91.6%, the viability, T/C [8] was 92.8% and the viability, T/C [9] was 75.9%. The viability, T/C [10] was 79.5%, the viability, T/C [11] was 77% and the viability, T/C [12] was 54.8%. For the same compound, the viability, T/C [13] was 96.5%, the viability, T/C [14] was 100% and the viability, T/C [15] was 92.4%. It also gave a viability, T/C [16] of 97.8%, a viability, T/C [17] of 79.7% and a viability, T/C [18] of 61.1%. For the same compound, the viability, T/C [19] was 122%, the viability, T/C [20] was 103% and the viability, T/C [21] was 93.1%. It also gave a viability, T/C [22] of 83.3%, a viability, T/C [23] of 82.5% and a viability, T/C [24] of 72.3%. The viability, T/C [25] was 97.8%, the viability, T/C [26] was 80.1% and the viability, T/C [27] was 83%. The viability, T/C [28] was 88.7%, the viability, T/C [29] was 79.2% and the viability, T/C [30] was 84.8%. The viability, T/C [31] was 96.3%, the viability, T/C [32] was 96.3% and the viability, T/C [33] was 80.1%. The viability, T/C [34] was 73.6%, the viability, T/C [35] was 76.3% and the viability, T/C [36] was 61.9%.
Work on `COc1ccc([C@@H](O)c2cc(-c3ncnc4cc(N5CCOCC5)ccc34)c(F)cc2Cl)nn1` + Cc1cccc(N(C)C(=O)C2C(O)CCN2c2nc(C)cc(C(F)(F)F)c2C#N)c1 yielded an IC50 (second compound 0.0316 µM) of over 10 µM, an IC50 (second compound 0.1 µM) of over 10 µM and an IC50 (second compound 0.316 µM) of over 10 µM. The IC50 (second compound 1 µM) was over 10 µM, the IC50 (second compound 3.16 µM) was 8.54 µM and the IC50 (second compound 10 µM) was over 10 µM. It also gave a viability, T/C [1] of 118%, a viability, T/C [2] of 90.8% and a viability, T/C [3] of 88.6%. The viability, T/C [4] was 73.4%, the viability, T/C [5] was 71.6% and the viability, T/C [6] was 64.2%. It also gave a viability, T/C [7] of 91.8%, a viability, T/C [8] of 114% and a viability, T/C [9] of 91.1%. The viability, T/C [10] was 79%, the viability, T/C [11] was 72.8% and the viability, T/C [12] was 57.7%. For the same compound, the viability, T/C [13] was 110%, the viability, T/C [14] was 116% and the viability, T/C [15] was 83.6%. For the same compound, the viability, T/C [16] was 88.8%, the viability, T/C [17] was 93.7% and the viability, T/C [18] was 62.8%. It also gave a viability, T/C [19] of 91.9%, a viability, T/C [20] of 97.3% and a viability, T/C [21] of 119%. The viability, T/C [22] was 63.8%, the viability, T/C [23] was 91.6% and the viability, T/C [24] was 56.8%. The viability, T/C [25] was 87.1%, the viability, T/C [26] was 87.4% and the viability, T/C [27] was 95.5%. For the same compound, the viability, T/C [28] was 71.5%, the viability, T/C [29] was 85.6% and the viability, T/C [30] was 44.4%. For the same compound, the viability, T/C [31] was 97.9%, the viability, T/C [32] was 97.5% and the viability, T/C [33] was 76.3%. The viability, T/C [34] was 61.6%, the viability, T/C [35] was 71.9% and the viability, T/C [36] was 49.2%.
With `Cn1ncnc1[C@H]1c2n[nH]c(=O)c3cc(F)cc(c23)N[C@@H]1c1ccc(F)cc1` + Cc1cccc(N(C)C(=O)C2C(O)CCN2c2nc(C)cc(C(F)(F)F)c2C#N)c1 the IC50 (second compound 0.0316 µM) was over 0.1 µM, the IC50 (second compound 0.1 µM) was over 0.1 µM and the IC50 (second compound 0.316 µM) was over 0.1 µM. It also gave an IC50 (second compound 1 µM) of over 0.1 µM, an IC50 (second compound 3.16 µM) of over 0.1 µM and an IC50 (second compound 10 µM) of over 0.1 µM. For the same compound, the viability, T/C (second compound 0.0316 µM, first compound 0.000316 µM) was 101%, the viability, T/C (second compound 0.0316 µM, first compound 0.001 µM) was 115% and the viability, T/C (second compound 0.0316 µM, first compound 0.00316 µM) was 114%. The viability, T/C (second compound 0.0316 µM, first compound 0.01 µM) was 125%, the viability, T/C [1] was 98.2% and the viability, T/C [2] was 97.3%. The viability, T/C (second compound 0.1 µM, first compound 0.000316 µM) was 110%, the viability, T/C (second compound 0.1 µM, first compound 0.001 µM) was 116% and the viability, T/C (second compound 0.1 µM, first compound 0.00316 µM) was 120%. It also gave a viability, T/C (second compound 0.1 µM, first compound 0.01 µM) of 80%, a viability, T/C [7] of 101% and a viability, T/C [8] of 103%. For the same compound, the viability, T/C (second compound 0.316 µM, first compound 0.000316 µM) was 97.5%, the viability, T/C (second compound 0.316 µM, first compound 0.001 µM) was 102% and the viability, T/C (second compound 0.316 µM, first compound 0.00316 µM) was 95.8%. For the same compound, the viability, T/C (second compound 0.316 µM, first compound 0.01 µM) was 86.2%, the viability, T/C [13] was 101% and the viability, T/C [14] was 99.8%. For the same compound, the viability, T/C (second compound 1 µM, first compound 0.000316 µM) was 85.1%, the viability, T/C (second compound 1 µM, first compound 0.001 µM) was 96.5% and the viability, T/C (second compound 1 µM, first compound 0.00316 µM) was 80.9%. For the same compound, the viability, T/C (second compound 1 µM, first compound 0.01 µM) was 82%, the viability, T/C [19] was 103% and the viability, T/C [20] was 95.2%. The viability, T/C (second compound 3.16 µM, first compound 0.000316 µM) was 96.4%, the viability, T/C (second compound 3.16 µM, first compound 0.001 µM) was 116% and the viability, T/C (second compound 3.16 µM, first compound 0.00316 µM) was 92.7%. It also gave a viability, T/C (second compound 3.16 µM, first compound 0.01 µM) of 108%, a viability, T/C [25] of 96.2% and a viability, T/C [26] of 97.1%. For the same compound, the viability, T/C (second compound 10 µM, first compound 0.000316 µM) was 91%, the viability, T/C (second compound 10 µM, first compound 0.001 µM) was 115% and the viability, T/C (second compound 10 µM, first compound 0.00316 µM) was 108%. It also gave a viability, T/C (second compound 10 µM, first compound 0.01 µM) of 112%, a viability, T/C [31] of 110% and a viability, T/C [32] of 104%.
